Assay results: US8952024B2, “Herbicidal pyrimidone derivatives” (E I du Pont de Nemours and Company, priority 2009, dated 2015)

Legend:
Assay type in all cases: in vivo
[1] = tested on: nightshade (eastern black nightshade, Solanum ptycanthum); experiment: Test B pre-/postemergence plant response; conditions: Preemergence
How it was run: (§1)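 Visual injury, 0–100 scale (100 = complete control), rated against controls after 13 to 15 days in greenhouse. Pre-emergence: seeds in loam/sand soil, treated at planting. Post-emergence: 1- to 4-leaf plants (2 to 18 cm) in peat/vermiculite medium. Compounds formulated in non-phytotoxic solvent with surfactant.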

[2] = tested on: galium (catchweed bedstraw, Galium aparine); experiment: Test B pre-/postemergence plant response; conditions: Preemergence
How it was run: as §1

[3] = tested on: sunflower (common oilseed sunflower, Helianthus annuus); experiment: Test B pre-/postemergence plant response; conditions: Preemergence
How it was run: as §1

[4] = tested on: ducksalad (Heteranthera limosa); experiment: Test B flooded paddy test; conditions: for Plant response rating, Flood, Ducksalad: 250 g ai/ha, flooded paddy test, visual rating on 0 to 100 scale (0 no effect, 100 complete control) after 13 to 15 days; for Plant response rating, Ducksalad: Flood (flooded paddy test), 13 to 15 days
How it was run: (§2)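 Each compound is added to standing floodwater (3 cm above soil, maintained) in pots of 2-leaf-stage plants; greenhouse exposure lasts 13–15 d before visual comparison with controls on a 0–100 control scale.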

[5] = tested on: barnyardgrass (Echinochloa crus-galli); experiment: Test B flooded paddy test; conditions: for Plant response rating, Flood, Barnyardgrass: 250 g ai/ha, flooded paddy test, visual rating on 0 to 100 scale (0 no effect, 100 complete control) after 13 to 15 days; for Plant response rating, Barnyardgrass: Flood (flooded paddy test), 13 to 15 days
How it was run: as §2

[6] = 31 g ai/ha, scale 0 to 100 (0 no effect, 100 complete control)
[7] = 62 g ai/ha, scale 0 to 100 (0 no effect, 100 complete control)
[8] = 31 g ai/ha, scale of 0 to 100 where 0 is no effect and 100 is complete control
[9] = 62 g ai/ha, scale 0 to 100, 0 is no effect, 100 is complete control
[10] = 125 g ai/ha, scale 0 to 100, 0 is no effect, 100 is complete control
[11] = 62 g ai/ha, scale of 0 to 100 where 0 is no effect and 100 is complete control
[12] = 125 g ai/ha, scale 0 to 100, 0 no effect, 100 complete control

Row | SMILES | Plant response rating, Nightshade ([1]; 250 g ai/ha, 0 to 100 scale) | Plant response rating, Nightshade [1, 6] | Plant response rating, Nightshade [1, 7] | Nightshade plant response rating ([1]; 125 g ai/ha, 0 to 100 scale) | Plant response rating, Galium ([2]; 250 g ai/ha, 0 to 100 scale) | Plant response rating, Galium [2, 6] | Plant response rating, Galium [2, 7] | Galium plant response rating ([2]; 125 g ai/ha, 0 to 100 scale) | Plant response rating, Sunflower ([3]; 250 g ai/ha, 0 to 100 scale) | Plant response rating, Sunflower [3, 6] | Sunflower plant response rating ([3]; 125 g ai/ha, 0 to 100 scale) | Plant response rating, Flood, Ducksalad [4] | Plant response rating, Ducksalad [4, 8] | Plant response rating, Ducksalad [4, 9] | Plant response rating, Ducksalad [4, 10] | Plant response rating, Flood, Barnyardgrass [5] | Plant response rating, Barnyardgrass [5, 8] | Plant response rating, Barnyardgrass [5, 10] | Plant response rating, Ducksalad [4, 11] | Plant response rating, Barnyardgrass [5, 11] | also measured
1 | Cc1ccccc1-n1c(-c2cccc(Cl)c2)ncc(C(=O)C2=C(O)CCCC2=O)c1=O [Compound 36] | 98 | 80 | 95 | 95 | 95 | 10 | 80 | 80 | 85 | 0 | 55 | 40 | 0 | 0 | 0 | 15 | 0 | 0 |  |  | Plant response rating, Barnyardgrass [5, 9]: 0
2 | O=C1CCCC(O)=C1C(=O)c1cnc(-c2ccccc2)n(-c2cccc(Br)c2)c1=O [Compound 38] | 100 | 90 | 95 | 98 | 85 | 0 | 40 | 85 | 75 | 0 | 25 | 65 | 0 | 20 | 60 | 0 | 0 | 0 |  |  | Plant response rating, Barnyardgrass [5, 9]: 0
3 | Cc1c(Cl)cccc1-n1c(-c2ccccc2)ncc(C(=O)C2=C(O)CCCC2=O)c1=O [Compound 40] | 100 | 65 | 98 | 98 | 90 | 50 | 70 | 85 | 80 | 20 | 75 | 90 |  | 0 |  | 40 |  |  |  |  | Plant response rating, Barnyardgrass [5, 9]: 0
4 | CCCCc1ncc(C(=O)C2=C(O)CCCC2=O)c(=O)n1-c1ccccc1 [Compound 42] | 100 | 100 | 100 | 100 | 50 | 0 | 0 | 10 | 75 | 0 | 55 | 50 |  | 30 |  | 0 |  |  |  |  | Plant response rating, Barnyardgrass [5, 9]: 0
5 | Cc1ccc(F)cc1-n1c(-c2ccccc2)ncc(C(=O)C2=C(O)CCCC2=O)c1=O [Compound 44] | 100 | 95 | 98 | 100 | 98 | 0 | 65 | 65 | 80 | 10 | 75 | 90 |  | 80 |  | 30 |  |  |  |  | Plant response rating, Barnyardgrass [5, 9]: 0
6 | Cc1cccc(Cl)c1-n1c(-c2ccccc2)ncc(C(=O)C2=C(O)CCCC2=O)c1=O [Compound 46] | 98 | 95 | 95 | 98 | 70 | 0 | 0 | 0 | 60 | 0 | 0 | 20 |  |  |  | 0 |  |  | 20 | 0 | 
7 | Cc1cc(-n2c(-c3ccccc3)ncc(C(=O)C3=C(O)CCCC3=O)c2=O)ccc1F [Compound 53] |  | 98 | 98 |  | 90 | 0 | 0 |  |  | 15 |  | 75 | 40 |  | 75 | 75 | 20 | 55 | 65 | 40 | Plant response rating, Nightshade [1, 12]: 100; Plant response rating, Galium [2, 12]: 0; Plant response rating, Sunflower [3, 7]: 55; Plant response rating, Sunflower [3, 12]: 65
8 | Cn1c(-c2ccccc2)ncc(C(=O)C2=C(O)CCCC2=O)c1=O [Compound 55] |  | 60 | 98 |  | 85 | 0 | 0 |  |  | 10 |  | 50 | 0 |  | 0 | 20 | 0 | 20 | 0 | 20 | Plant response rating, Nightshade [1, 12]: 100; Plant response rating, Galium [2, 12]: 20; Plant response rating, Sunflower [3, 7]: 60; Plant response rating, Sunflower [3, 12]: 60
9 | O=C1CCCC(O)=C1C(=O)c1cnc(-c2ccsc2)n(-c2ccccc2)c1=O [Compound 56] |  | 85 | 98 |  | 85 | 0 | 0 |  |  | 0 |  | 50 | 0 |  | 40 | 35 | 10 | 20 | 20 | 15 | Plant response rating, Nightshade [1, 12]: 98; Plant response rating, Galium [2, 12]: 60; Plant response rating, Sunflower [3, 7]: 60; Plant response rating, Sunflower [3, 12]: 65
10 | CCCCc1ncc(C(=O)C2=C(O)CCCC2=O)c(=O)n1-c1cccc(C)c1 [Compound 63] |  | 80 | 95 |  | 20 | 0 | 0 |  |  | 5 |  | 40 | 0 |  | 40 | 10 | 0 | 0 | 20 | 0 | Plant response rating, Nightshade [1, 12]: 98; Plant response rating, Galium [2, 12]: 0; Plant response rating, Sunflower [3, 7]: 15; Plant response rating, Sunflower [3, 12]: 20
11 | CCCn1c(-c2cccs2)ncc(C(=O)C2=C(O)CCCC2=O)c1=O [Compound 77] |  | 98 | 98 |  |  | 0 | 20 |  |  | 60 |  | 40 |  |  |  | 65 |  |  | 30 | 30 | Plant response rating, Nightshade [1, 12]: 98; Nightshade plant response rating ([1]; 250 g ai/ha, 0 to 100 scale): 100; Plant response rating, Galium [2, 12]: 85; Galium plant response rating ([2]; 250 g ai/ha, 0 to 100 scale): 90; Plant response rating, Sunflower [3, 7]: 75; Plant response rating, Sunflower [3, 12]: 75; Sunflower plant response rating ([3]; 250 g ai/ha, 0 to 100 scale): 85
